Source: patent publication US20250197355A1, “TEAD Targeting Compounds and Methods Thereof” (Agency for Science, Technology and Research, priority 2022, published 2025)

Tests used:
Type in all cases: cell-based
[1] = test system: hippo signaling target proteins (TEAD4, Pan-TEADs, YAP, TAZ); assay: Immunoblotting of hippo signaling target proteins in A549 whole cell lysates; conditions: A549 cells, 24 hrs
Protocol: Method: A549 cells (at 60% confluency) either mock treated or treated with indicated doses of CPD10 and CPD13 for 24 hrs. Cells were washed with ice-cold 1×PBS and lysed in protein lysis buffer. Whole cell lysates were quantified by Pierce™ BCA Protein assay kit (Catalog number: 23225) and denatured in 4×LDS buffer (Thermo catalog number: NP0007) added with competing amount of DTT followed by boiling for 3 minutes. Samples were resolved in 8% of SDS-PAGE, transferred onto nitrocellulose membrane and immunoblotting was performed with indicated antibodies.
Result: To determine the CPD10 and CPD13 mediated expression of hippo signaling target proteins in A549 cells, whole cell lysates from mock treated and compounds treated cells were immunoblotted to determine the level of TEAD4, Pan-TEADs, YAP, TAZ proteins. […] Similar to CPD10, CPD13 downregulate YAP expression at 10 Um (B). To determine the level of other transcriptional targets, we tested the p53 protein in same sets of protein samples. […] GAPDH was used as loading control.

[2] = target: T1, GFP-TEAD4 (Homo sapiens, UniProt Q15561); assay: TEAD4 localization imaging in U20S cells stably expressing GFP-TEAD4; conditions: 10 μM, 18 hrs
T1 construct: expressed in transfected cells
T1 sequence (Q15561 whole entry): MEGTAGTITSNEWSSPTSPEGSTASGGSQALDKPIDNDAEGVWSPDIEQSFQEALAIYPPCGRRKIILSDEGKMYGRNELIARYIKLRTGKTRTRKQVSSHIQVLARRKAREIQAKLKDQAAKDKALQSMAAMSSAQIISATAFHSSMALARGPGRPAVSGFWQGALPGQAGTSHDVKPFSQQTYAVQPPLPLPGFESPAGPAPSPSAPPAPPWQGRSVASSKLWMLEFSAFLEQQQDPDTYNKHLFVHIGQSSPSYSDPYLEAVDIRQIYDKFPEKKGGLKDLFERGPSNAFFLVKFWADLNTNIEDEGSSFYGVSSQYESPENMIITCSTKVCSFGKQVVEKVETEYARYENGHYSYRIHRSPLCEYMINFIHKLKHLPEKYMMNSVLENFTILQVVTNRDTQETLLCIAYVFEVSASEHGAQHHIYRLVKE
Protocol: Methods: U20S cells stably expressing GFP-TEAD4 were seeded at 50,000 cell densities onto glass cover slips in six well plates. Next day, cells were either DMSO treated or treated with indicated compounds at 10 μM concentrations. After 18 hrs of treatment cells were washed and fixed in 4% formaldehyde for 20 minutes. Blocking was done in 3% BSA dissolved in PBST for 1 hour. Cell were incubated with indicated antibodies for overnight in a cold room. Next day, after washing 3× in PBST samples were incubated with respective secondary antibodies for 45 minutes at room temperature. After washing nuclear staining was done with DAPI for 10 minutes. Coverslips were added onto glass slides with the help of mounting medium. After drying, cells were imaged at 63× objective and processed with ZEN x64 blue software.
Result: In DMSO treated control samples we observed very nuclear localized TEAD4 (green) signal, strongly imposed to the DAPI signal. Nuclear and cytoplasmic YAP and TAZ was observed either in DMSO or in compound treated cells.

[3] = test system: NCI-H226 mesothelioma cells; assay: Colony forming assay in NCI-H226 mesothelioma cells
Protocol: In colony forming assay, indicated cells were plated at 5,000 cells density in 2 ml of DMEM medium. TEAD4 depletion was performed by reverse transfection with 20 nM of Dharmacon smart pool NTsiRNA and TEAD4 siRNA in 2.5 ul of lipofectamine mixed with 25% of OPTIMEM. After 18 hrs of transfection, cells were either DMSO treated or treated with indicated compounds at different doses. After 48 hrs of the treatment cells were recovered in a fresh medium for 4 days. At the end of the experiment cells were Glutaraldehyde fixed and stained in crystal violet solution for 2 hrs. After washing, plates were scanned for image processing.
Colony forming assay was essentially performed as described in previous section.

## C=CS(=O)(=O)CCC(=O)Nc1nn(-c2ccccc2)cc1C [CPD10]
[1]; 10 Um
  TAZ expression (immunoblot): significantly reduced
[1]; highest concentration
  TEAD4 and pan-TEAD expression (immunoblot): reduced
[1]; indicated doses
  YAP expression (immunoblot): downregulated in a dose dependent manner
[1]; same protein samples
  wild type p53 expression (immunoblot): didn't resulted in change
[2]
  cytoplasmic localization of the TEAD4 protein: induction of cytoplasmic localization
  nuclear TEAD4 presence: didn't diminish
[3]
  colony forming sensitivity: strongly sensitizes
